The source of these data is US20080075730A1, “Methods and compositions for treating biofilms” (priority 2003, published 2008).

In brackets after ≈: the same amount, converted by molar mass. Read-outs that look alike come from different tables or passages of the source.

Format in all cases: cell-based
In assay [1] the test system is Pseudomonas aeruginosa PA14 SCV. Put plainly: MIC determination, planktonic cells shed from biofilms (MBEC P&G device). As to conditions: for MIC: Pseudomonas aeruginosa, PA14, read-out: MIC72 h. The protocol: (§1) Antimicrobial susceptibility testing. Antibiotic, metal and biocide susceptibility tests were performed. Antimicrobials were arranged into arrays in microtitre plates that typically consisted of serial two-fold dilutions along the rows of wells (the challenge plates). The first and last wells of every row were used as sterility and growth controls, respectively. […] Biofilms were rinsed with PBS (to remove loosely adherent planktonic cells) and inserted into the challenge plates. After exposure, biofilms were rinsed once in PBS and inserted into microtitre plates containing […] of recovery medium in each well (LB broth, 5 mM GSH, 5 mM L-cys, 1% v/v tween-20). These biofilms were disrupted into the recovery medium using a sonicator, and the recovered cells were serially diluted and plated for viable cell counting. Spot plates from these experiments were incubated for a minimum of 36 h at 35° C. before enumeration. Minimum inhibitory concentration (MIC) values were determined by reading the optical density at 650 nm (OD650) of challenge plates after 72 h at 35° C. using a THERMOmax microplate reader with SOFTMAX PRO data analysis software (Molecular Devices, Sunnyvale, Calif.).
(§2) For susceptibility testing, growth-curve data were used to calibrate incubation times to produce biofilms of similar cell density. […] In this model system, planktonic cells shed from the surface of biofilms served as the inoculum for MIC determinations.

Assay [2] concerns Pseudomonas aeruginosa PA14 gacS^−. Described as above. As to conditions: for MIC: Pseudomonas aeruginosa, PA14, read-out: MIC72 h. The protocol: as §1, §2
Assay [3] concerns Pseudomonas aeruginosa PA14 wild-type. Put plainly: microbe, parasite or virus in culture. As to conditions: for MIC: Pseudomonas aeruginosa, read-out: MIC72 h; for differences in planktonic cell susceptibility between the different strains: wild type vs gacS^− vs SCV, log2 difference or less. The procedure: as §1, §2
Assay [4] concerns Pseudomonas aeruginosa PA14 gacS^− biofilms. Put plainly: Biofilm susceptibility testing (viable cell counts, log-killing, MBEC99.9). As to conditions: for Log-survival / No. of survivors / SCV frequency: LB broth; for Log-survival / No. of survivors / SCV frequency / MBEC99.9: 2 h exposure; for MBEC99.9: gacS^− biofilms, 3 log10 reduction in viable cells; for proportion of SCV cells recovered from biofilms after exposure, relative to growth controls: susceptibility assays, in words.
From the text: (§3) Biofilm formation. Biofilms were aerobically cultivated using the MBEC high-throughput (HTP) or Physiology and Genetics (P&G) device (Innovotech, Edmonton, Canada) as described in the manufacturer's instructions and by Ceri et al. (1999). To summarize, the parts of this batch culture apparatus were used in two ways. The top half of the plastic MBEC™-HTP device is a lid with 96 polystyrene pegs that also fits over a standard 96-well microtitre plate. For Biofilm growth, the bottom half was either (1) a corrugated trough that guided 22 mL of inoculum across the pegs when the device was placed on a rocker at 3.5 rocks per min (HTP format), or (2) a microtitre plate with […] of inoculum in each well that was placed on a gyrorotary shaker at 150 r.p.m. (P&G format). For either assay format, the inoculum was prepared to c. 10^7CFU/mL1 of the desired strain and the inoculated device was incubated at 35° C. and 95% relative humidity for the required time. Unless otherwise noted, all experiments utilized the MBEC P&G assay. Pegs from the devices were collected at specific time points for scanning electron microscopy and scanning confocal laser microscopy. Biofilm cell densities were evaluated by breaking pegs from the lid of the MBEC device with sterile pliers, rinsing the peg in PBS, and subsequent viable-cell counting as described above. PBS containing the […] surfactant Tween-20 (1% v/v) was used to assist in recovery of bacteria from the peg surfaces. Pegs were sonicated for 30 min in an Aquasonic model 250HT ultrasonic cleaner (VWR International, Mississauga, Canada). Samples of broth culture were collected at the same time points and viable cell counts were determined in a similar manner.
as §1, §2

Assay [5] concerns Pseudomonas aeruginosa PA14 SCV biofilms. Described as above. As to conditions: for MBEC99.9: 2 h exposure, 3 log10 reduction in viable cells; for tolerance of SCV strain biofilms relative to the wild-type strain: ratio of MBEC99.9 values, SCV vs wild type.
From the text: as §3, §1, §2

For assay [6], the system named is Pseudomonas aeruginosa PA14 wild-type biofilms.
From the text: as §3, §1, §2

The test system of assay [7] is Pseudomonas aeruginosa PA14 gacS^− biofilms. Put plainly: Frequency of SCV cells arising from 24-h biofilms exposed for 18 h. As to conditions: in words. The procedure:
In an alternative set of experiments, the frequency of SCV cells arising from 24-h biofilms of P. aeruginosa PA14 gacS was evaluated. Antibiotics were diluted from stock solutions into LB broth to obtain final concentrations of […]. These were arranged in triplicate in a micro-titre plate. Biofilms were incubated in these low concentrations of antibacterials for 18 h at 35° C. and 95% relative humidity. Goat and human serum were also assayed in this array, and were kind gifts from The Life and Environmental Sciences Animal Care Facility at the University of Calgary, Department of Biological Sciences. After exposure, biofilms were treated in a manner identical to that described above.
Frequency of phenotypic variation. During the course of susceptibility assays, the proportion of SCV cells recovered from biofilms after exposure to Ag^+ or H2O2 was increased relative to the corresponding growth controls. It was queried whether this may be true for other antimicrobial agents or growth conditions. An array of clinically used antibiotics, saline, and goat and human sera were examined for an ability to select for these SCVs from 24-h biofilms of P. aeruginosa PA14 gacS. Biofilms were exposed to these agents for 18 h and each assay was performed in triplicate. Viable cell counts were determined for each exposure condition, and log-survival was determined. The proportion of SCV cells in bacterial populations recovered from these exposure conditions was calculated as the mean of the proportions from each individual trial.

The mark [8] stands for this setting: SCV, planktonic cells, OD650 after 72 h at 35° C., mean ± SD of four trials.
The mark [9] stands for this setting: gacS^−, planktonic cells, OD650 after 72 h at 35° C., mean ± SD of four trials.
The mark [10] stands for this setting: wild type biofilms, 2 h exposure, 3 log10 reduction in viable cells.

As for `O=C(O)c1cn(C2CC2)c2cc(N3CCNCC3)c(F)cc2c1=O` [Ciprofloxacin], the MIC was determined as 0.8 ± 0.4 µg/mL (≈ 2.41 µM) in assay [1] (setting [8]); 0.7 ± 0.3 µg/mL (≈ 2.11 µM) in assay [2] (setting [9]); 0.4 ± 0.2 µg/mL (≈ 1.21 µM) in assay [3] (PA14, wild type, planktonic cells, OD650 after 72 h at 35° C., mean ± SD of four trials). Moreover, the “differences in planktonic cell susceptibility between the different strains” value in assay [3] was “no significant differences”. In assay [4] (0.16 μg mL^−1), the Log-survival is given as −2.6 ± 0.8 log10 CFU peg^−1. Moreover, the No. of survivors in assay [4] (0.16 μg mL^−1) was found to be 2.4 ± 0.8 log10 CFU peg^−1. The molecule also yielded an SCV frequency in assay [4] (0.16 μg mL^−1) of 0%. In addition, the figures for the MBEC99.9 in assay [4], in assay [5] (SCV biofilms) and in assay [6] (setting [10]) were 0.12 ± 0.05 µg/mL, 0.64 ± 0.45 µg/mL and 0.16 ± 0 µg/mL, respectively. For the same molecule, the “tolerance of SCV strain biofilms relative to the wild-type strain” value in assay [5] was “approximately four”. In assay [7], the “selection for SCVs / increase of the frequency of SCV cells compared with growth controls” value is “in no instances”.
Consider `OO` [H2O2, hydrogen peroxide], for which the MIC in assay [1] (setting [8]) came out at 1880 µg/mL (≈ 55100 µM); in assay [2] (setting [9]), 45 ± 16 µg/mL (≈ 1320 µM); in assay [3] (PA14, 72 h), 938 µg/mL (≈ 27600 µM). Besides, the planktonic cell susceptibility result in assay [1] (planktonic PA14 SCV, by comparison, in words) is given as “highly resistant”; in assay [2] (planktonic PA14 gacS, in words), “hypersensitive”. The Log-survival in assay [4] (30 μg mL^−1) is on record as −3.8 ± 1.1 log10 CFU peg^−1. In assay [4] (30 μg mL^−1), this molecule showed a No. of survivors of 1.2 ± 1.1 log10 CFU peg^−1. Further, the SCV frequency in assay [4] (30 μg mL^−1) was 8%. The MBEC99.9 was determined as 22 ± 14 ppm in assay [4], 293 ± 203 ppm in assay [5] (SCV biofilms) and 352 ± 135 ppm in assay [6]. Moreover, the “proportion of SCV cells recovered from biofilms after exposure, relative to growth controls” value in assay [4] is “increased”. Besides, the “biofilm survival at subMBEC99.9 concentrations relative to the wild-type strain” value in assay [5] (in words) was “increased survival”.
Regarding `[Ag+]` [Ag^+], the MIC72 h in assay [1] (setting [8]) is 40 ± 0 µM; in assay [2] (setting [9]), 40 ± 10 µM; in assay [3] (wild type, planktonic cells, OD650 after 72 h at 35° C., mean ± SD of four trials), 40 ± 20 µM. Further, the “differences in planktonic cell susceptibility between the different strains” value in assay [3] is given as “no significant differences”. Further, the Log-survival in assay [4] (4 μg mL^−1) is −2.6 ± 0.1 log10 CFU peg^−1. The No. of survivors in assay [4] (4 μg mL^−1) is 2.4 ± 0.1 log10 CFU peg^−1. Further, in assay [4] (4 μg mL^−1), the SCV frequency is recorded as 7%. The “concentration at which the vast majority of cell viability was lost” value in assay [4] (PA14 gacS biofilms, 2 h exposure (FIG. 15)) turned out to be 0.02 mM; in assay [6] (PA14 wt biofilms, 2 h exposure (FIG. 15)) it was 0.04 mM. In addition, the MBEC99.9 in assay [4] is given as 0.06 ± 0.02 mM; in assay [5] (SCV biofilms), 4.8 ± 0 mM; in assay [6] (setting [10]) it was 0.08 ± 0.05 mM. Further, the “proportion of SCV cells recovered from biofilms after exposure, relative to growth controls” value in assay [4] is given as “increased”. Further, the “concentration to which biofilms were resistant” value in assay [5] (SCV biofilms, 2 h exposure (FIG. 15)) amounted to 2.4 mM. Moreover, in assay [5], the “tolerance of SCV strain biofilms relative to the wild-type strain” value is around 60 times.
